Measured values from ChEMBL document CHEMBL1129628, “Effect of ring size or an additional heteroatom on the potency and selectivity of bicyclic benzylamine-type inhibitors of phenylethanolamine N-methyltransferase” (J Med Chem, 1996).

Legend:
[1] = Selectivity ratio between Ki of alpha-2 adrenoceptor and Ki of PNMT
[2] = biological target: T1, Phenylethanolamine N-methyltransferase (Bos taurus, UniProt P10938); assay: In vitro for inhibition of Phenylethanolamine N-Methyltransferase (PNMT)
T1 sequence (P10938 whole entry): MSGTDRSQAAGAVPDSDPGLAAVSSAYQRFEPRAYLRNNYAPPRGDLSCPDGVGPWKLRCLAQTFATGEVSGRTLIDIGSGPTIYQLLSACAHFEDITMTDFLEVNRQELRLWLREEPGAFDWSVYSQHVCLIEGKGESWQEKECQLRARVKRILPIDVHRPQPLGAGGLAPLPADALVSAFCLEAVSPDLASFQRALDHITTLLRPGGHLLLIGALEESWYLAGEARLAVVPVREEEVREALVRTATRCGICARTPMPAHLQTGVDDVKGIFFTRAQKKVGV

[3] = biological target: T2, Adrenergic receptor alpha-2 (Rattus norvegicus, UniProt P22086+P19328+P22909); assay: In vitro for binding affinity against Alpha-2 adrenergic receptor by radioligand [3H]clonidine in rat
T2 sequence (P22086 whole entry): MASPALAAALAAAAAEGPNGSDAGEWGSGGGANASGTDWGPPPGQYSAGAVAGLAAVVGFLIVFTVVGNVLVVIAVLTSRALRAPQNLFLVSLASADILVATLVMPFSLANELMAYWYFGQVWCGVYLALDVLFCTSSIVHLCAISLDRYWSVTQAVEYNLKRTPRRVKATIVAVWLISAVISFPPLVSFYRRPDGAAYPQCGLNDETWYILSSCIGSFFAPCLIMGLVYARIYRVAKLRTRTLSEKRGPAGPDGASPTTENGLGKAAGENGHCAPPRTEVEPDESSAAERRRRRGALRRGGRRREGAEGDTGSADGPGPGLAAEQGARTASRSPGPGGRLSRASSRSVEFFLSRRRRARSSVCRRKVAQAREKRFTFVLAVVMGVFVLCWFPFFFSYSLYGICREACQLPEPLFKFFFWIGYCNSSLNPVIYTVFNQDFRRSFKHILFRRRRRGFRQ
T2 sequence (P19328 whole entry): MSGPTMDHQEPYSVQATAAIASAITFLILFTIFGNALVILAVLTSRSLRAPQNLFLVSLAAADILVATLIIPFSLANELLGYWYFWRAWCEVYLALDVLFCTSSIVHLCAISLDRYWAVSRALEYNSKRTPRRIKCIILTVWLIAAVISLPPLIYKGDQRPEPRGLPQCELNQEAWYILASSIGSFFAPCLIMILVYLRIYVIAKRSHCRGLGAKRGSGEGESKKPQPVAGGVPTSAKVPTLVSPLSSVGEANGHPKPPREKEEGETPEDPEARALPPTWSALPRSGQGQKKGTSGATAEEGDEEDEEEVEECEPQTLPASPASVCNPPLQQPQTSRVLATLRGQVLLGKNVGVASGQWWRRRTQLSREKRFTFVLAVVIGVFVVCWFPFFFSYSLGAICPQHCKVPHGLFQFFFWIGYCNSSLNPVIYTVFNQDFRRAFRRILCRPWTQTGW
T2 sequence (P22909 whole entry): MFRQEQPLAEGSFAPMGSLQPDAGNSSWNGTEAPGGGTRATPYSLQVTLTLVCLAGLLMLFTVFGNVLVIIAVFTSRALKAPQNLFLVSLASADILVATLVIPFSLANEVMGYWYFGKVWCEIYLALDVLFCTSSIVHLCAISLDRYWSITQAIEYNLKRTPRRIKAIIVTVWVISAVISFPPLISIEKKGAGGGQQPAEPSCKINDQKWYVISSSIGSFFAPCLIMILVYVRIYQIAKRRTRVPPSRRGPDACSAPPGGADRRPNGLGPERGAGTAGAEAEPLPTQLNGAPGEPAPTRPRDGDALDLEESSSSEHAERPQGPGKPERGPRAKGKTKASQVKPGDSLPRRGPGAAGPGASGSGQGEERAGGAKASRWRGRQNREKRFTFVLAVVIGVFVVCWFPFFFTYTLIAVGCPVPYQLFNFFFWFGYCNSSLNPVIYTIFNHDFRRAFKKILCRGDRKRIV

| Ratio [1] | Ki [2] [µM] | Ki [3] [µM] | Structure (SMILES) |
| --- | --- | --- | --- |
| 3.2 | 3.34 | 11 | c1ccc2c(c1)CCCNC2 |
| 1.1 | 4.1 | 4.6 | c1ccc2c(c1)CNCCS2 |
| 0.093 | 28 | 2.6 | c1ccc2c(c1)CNCCN2 |
| 0.73 | 21.3 | 16 | c1ccc2c(c1)CCCCNC2 |
| 0.11 | 179 | 20 | NCc1ccccc1 [BENZYLAMINE] |
| 0.19 | 21.2 | 4.1 | c1ccc2c(c1)CNCCO2 |
| 0.0035 | 231 | 0.82 | c1ccc2c(c1)CNC2 |

| Structure (SMILES) | Ratio [1] | Ki [2] [µM] | Ki [3] [µM] |
| --- | --- | --- | --- |
| C[C@H]1Cc2ccccc2CN1 | 0.51 | 1.01 | 0.52 |
| CC1Cc2ccccc2CN1 (racemic) | 0.39 | 2.13 | 0.84 |
| c1ccc2c(c1)CCNC2 [1,2,3,4-TETRAHYDROISOQUINOLINE] | […] | 9.67 | […] |
| C[C@@H]1Cc2ccccc2CN1 | 0.16 | 38.3 | 6.2 |
